One may read the Tmax as the time at which the peak concentration occurs. Broadly, the Km is the substrate concentration at which the rate is half of its maximum. A word on the IC50: it is the concentration that gives 50% inhibition.

These results are taken from ChEMBL document CHEMBL3526052 (Drug Metab Dispos, 2013).

The nature of data set [1]: Tmax in CD-1 mouse brain at 0.1 mg/kg, iv administered as bolus dose in presence of ENT1 inhibitor NBMPR-P. In kind it is ADME, organism-based. Also noted: dose 0.1 mg/kg, route intravenous.
The target of data set [2] is T1, ENT1 (equilibrative nucleoside transporter 1) (Homo sapiens, UniProt Q99808).
T1 sequence (Q99808 whole entry): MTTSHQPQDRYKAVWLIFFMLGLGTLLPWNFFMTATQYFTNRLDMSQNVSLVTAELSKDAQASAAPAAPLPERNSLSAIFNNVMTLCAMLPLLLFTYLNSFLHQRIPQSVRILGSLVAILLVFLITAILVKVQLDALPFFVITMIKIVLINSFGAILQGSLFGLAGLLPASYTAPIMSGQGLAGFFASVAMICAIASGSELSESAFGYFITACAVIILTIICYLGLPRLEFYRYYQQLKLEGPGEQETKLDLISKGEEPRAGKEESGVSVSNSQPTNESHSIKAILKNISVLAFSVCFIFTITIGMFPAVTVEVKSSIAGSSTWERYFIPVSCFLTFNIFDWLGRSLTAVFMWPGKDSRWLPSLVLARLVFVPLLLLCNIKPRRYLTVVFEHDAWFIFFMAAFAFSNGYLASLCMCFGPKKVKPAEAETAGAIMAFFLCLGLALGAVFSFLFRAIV
Description: Drug transport in Xenopus laevis oocytes assessed as recombinant human ENT1-mediated uptake up to 1 mM by Michaelis-Menten equation analysis. It counts as ADME, cell-based. The note with it: Xenopus laevis oocytes expressing recombinant human ENT1, read-out: Km(app).

Data set [3] deals with T2, Sodium/nucleoside cotransporter 2 (Homo sapiens, UniProt O43868).
T2 sequence (O43868 whole entry): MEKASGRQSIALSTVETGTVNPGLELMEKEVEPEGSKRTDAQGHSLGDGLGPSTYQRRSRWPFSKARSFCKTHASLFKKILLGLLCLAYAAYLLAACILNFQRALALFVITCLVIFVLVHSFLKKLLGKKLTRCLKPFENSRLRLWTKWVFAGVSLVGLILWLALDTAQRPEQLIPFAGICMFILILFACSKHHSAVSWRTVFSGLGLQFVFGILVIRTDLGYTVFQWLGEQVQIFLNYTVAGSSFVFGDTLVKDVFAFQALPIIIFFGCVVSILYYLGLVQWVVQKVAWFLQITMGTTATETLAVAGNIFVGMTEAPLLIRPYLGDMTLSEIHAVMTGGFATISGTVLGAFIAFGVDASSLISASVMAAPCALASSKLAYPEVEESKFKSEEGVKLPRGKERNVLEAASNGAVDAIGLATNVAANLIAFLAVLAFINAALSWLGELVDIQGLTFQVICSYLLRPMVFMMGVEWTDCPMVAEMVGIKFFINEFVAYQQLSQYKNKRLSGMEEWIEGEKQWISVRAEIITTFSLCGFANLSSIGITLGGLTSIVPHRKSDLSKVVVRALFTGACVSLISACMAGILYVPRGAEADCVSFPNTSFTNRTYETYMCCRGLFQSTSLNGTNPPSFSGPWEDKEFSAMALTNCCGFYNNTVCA
Description: Binding affinity to recombinant human CNT2 expressed in Saccharomyces cerevisiae assessed as inhibition of [3H]-uridine transport after 15 mins by scintillation counting analysis. In kind it is ADME.

In data set [4] the target is T3, Sodium/nucleoside cotransporter 1 (Homo sapiens, UniProt O00337).
T3 sequence (O00337 whole entry): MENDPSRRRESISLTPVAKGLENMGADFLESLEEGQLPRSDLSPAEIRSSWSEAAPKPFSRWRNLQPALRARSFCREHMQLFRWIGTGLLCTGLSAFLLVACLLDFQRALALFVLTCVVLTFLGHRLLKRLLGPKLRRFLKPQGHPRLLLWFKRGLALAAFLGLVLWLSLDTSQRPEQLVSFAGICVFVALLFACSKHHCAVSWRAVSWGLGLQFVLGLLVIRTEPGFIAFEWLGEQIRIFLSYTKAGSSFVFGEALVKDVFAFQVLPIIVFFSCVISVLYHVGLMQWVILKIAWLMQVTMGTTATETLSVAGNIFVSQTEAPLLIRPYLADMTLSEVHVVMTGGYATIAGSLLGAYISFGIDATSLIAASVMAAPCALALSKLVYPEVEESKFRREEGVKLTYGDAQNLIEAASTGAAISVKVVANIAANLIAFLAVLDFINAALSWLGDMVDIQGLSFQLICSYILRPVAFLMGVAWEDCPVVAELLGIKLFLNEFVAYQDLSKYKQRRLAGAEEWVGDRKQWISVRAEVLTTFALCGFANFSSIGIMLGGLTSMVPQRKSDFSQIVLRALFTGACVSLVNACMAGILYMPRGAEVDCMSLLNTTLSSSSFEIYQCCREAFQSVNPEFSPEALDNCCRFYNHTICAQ
The experiment in a line: Binding affinity to recombinant human CNT1 expressed in Saccharomyces cerevisiae assessed as inhibition of [3H]-uridine transport after 15 mins by scintillation counting analysis. In kind it is ADME.

For `OC[C@H]1O[C@@H](n2cnc3c(N[C@@H]4CCOC4)ncnc32)[C@H](O)[C@@H]1O` [TECADENOSON], in data set [1], the Tmax is 11.4 min. Besides, the Km in data set [2] is 196 µM. Moreover, the IC50 was 239 µM in data set [3] and 41 µM in data set [4]. Moreover, the Ki in data set [3] (read-out: Ki(app)) stood at 231 µM; in data set [4] (read-out: Ki(app)), 37 µM.
